Data published in article PMC12677699, “Utilizing Proteolytic‐Resistant Nano‐Short Peptide Based on Naphthyl Tail‐Anchored to Combat Bacterial Infections” (Advanced Science, 2025).

Tests used:
S. aureus ATCC 29213 [1] = assay: Time-kill kinetics; type: cell-based, Staphylococcus aureus; conditions: PBS pH 7.4, n = 3
Experimental: Samples were collected at pre‐determined time points post‐exposure, serially diluted, and plated on Mueller‐Hinton agar (MHA) for viable colony counting after 18–24 h incubation at 37 °C. Untreated bacterial suspensions served as controls.

S. aureus ATCC 29213 [2] = assay: Live/dead staining, PI and SYTO 9; type: cell-based, Staphylococcus aureus
Description: Finally, a fluorescence microscope (EVOS FL Auto, Massachusetts, USA) was used to observe the fluorescence images of the bacteria under different background colors and representative pictures were taken.

SMILES: N=C(N)NCCC[C@H](NC(=O)[C@@H](CCCNC(=N)N)NC(=O)[C@H](Cc1cccc2ccccc12)NC(=O)[C@H](Cc1cccc2ccccc12)NC(=O)[C@H](Cc1cccc2ccccc12)NC(=O)[C@@H](N)Cc1cccc2ccccc12)C(=O)N[C@@H](CCCNC(=N)N)C(=O)N1CCC[C@H]1C(=O)O (stereo in doubt) [Peptide N4]
- time to eliminate all S. aureus ATCC 29213 cells (S. aureus ATCC 29213 [1]; 1 × MIC): ≤ 3000 s
- time to eliminate all S. aureus ATCC 29213 cells (S. aureus ATCC 29213 [1]; 4 × MIC): ≤ 1200 s
- red (PI)/green (SYTO 9) fluorescence overlap rate (S. aureus ATCC 29213 [2]; 16 × 10^−6 M N4, S. aureus ATCC 29213, ImageJ): 90.74%
- red (PI)/green (SYTO 9) fluorescence overlap rate (S. aureus ATCC 29213 [2]; 256 × 10^−6 M N4, S. aureus ATCC 29213, ImageJ): 98.65%
